Assay results taken from patent US20250387375A1, “SOFALCONE DERIVATIVES AND MEDICAL USE THEREOF” (KAOHSIUNG MEDICAL UNIVERSITY, priority 2024, published 2025).

Key:
[1] = system: human platelet suspension (platelet aggregation caused by collagen); assay: Platelet aggregation reaction test, collagen-induced; format: cell-based; settings: read-out: Collagen IC 50
Description: (§1) Blood samples were collected from healthy donors, and acid-citrate-dextrose (ACD) solution was used as an anticoagulant. The blood samples were centrifuged to obtain platelets, and residual plasma was removed by washing to prepare platelet suspension.
(§2) In the experimental method, a platelet aggregometer (Chrono-Log Co., Havertown, PA, USA) was used for tests. The compound to be tested was added to the platelet suspension and reacted for 3 minutes at 37° C. with stirring (1200 rpm). Then, platelet stimulator U46619 or collagen was added to initiate platelet aggregation, and the test time was 5 minutes. The principle of the platelet aggregation test was: when platelets were stimulated to induce aggregation reaction, the light transmission of the platelet suspension would increase; by calculating changes in light transmission of the platelet suspension before and after being stimulated, the percentage of platelet aggregation could be obtained.

[2] = system: PGE2 formation in human platelet suspensions; assay: Measurement of platelet PGE2 level after arachidonic acid; format: cell-based; settings: AA 100 μM; human platelet suspension
Description: (§3) FIGS. 6A and 6B show the effect of sofalcone and its derivatives on TxB2 and PGE2 productions induced by arachidonic acid (AA). […] After human platelet suspension was pretreated with dimethyl sulfoxide (DMSO) or sofalcone (SFC), sofalcone derivative 3, and sofalcone derivative 30, arachidonic acid (100 μM) was added to stimulate the productions of arachidonic acid metabolites TxB2 and PGE2. Data are presented as mean±standard error of the mean (n>5). Compared with the control group, *P<0.05, **P<0.01, ***P<0.001. ASA: Aspirin.
as §1
(§4) The compound to be tested was added to the platelet suspension and reacted for 3 minutes at 37° C. under stirring (1200 rpm), then arachidonic acid (AA) (100 μM) was added to react for 4 minutes, and finally EDTA (5 mM) was added to terminate the reaction. The above sample was centrifuged at 13,000 rpm for 1 minute at 4° C. and the supernatant was collected. The concentrations of TxB2 and PGE2 in the supernatant were measured respectively using enzyme immunoassay kits (TxB2 ELISA kit and PGE2 ELISA kit; Cayman Chemical Company).

[3] = target: T1, human recombinant COX1 (Homo sapiens, UniProt P23219); assay: COX1 enzyme activity assay; format: biochemical
T1 construct: purchased Cayman Chemical Company
Description: (§5) COX1 and COX2 enzyme activities were analyzed by using a human COX inhibitor screening assay kit (Cayman Chemical Company). After allowing the to-be-tested compound, human recombinant COX1 or COX2 enzyme and heme to stand at 37° C. for 15 minutes, AA (10 μM) was added to react for 2 minutes. Then, stannous chloride was added to reduce PGH2, the product of the above COX reaction, to PGF2α. Finally, the PGF2α level in the sample was measured by using enzyme immunoassay, and the inhibition percentage was calculated.

[4] = system: TxB2 formation in human platelet suspensions; assay: Measurement of platelet TxB2 level after arachidonic acid; format: cell-based; settings: AA 100 μM; human platelet suspension
Description: as §3, §1, §4

[5] = system: FeCl3-induced carotid artery thrombosis; assay: Ferric chloride-induced carotid artery thrombosis in mice; format: in vivo, BALB/c mice; settings: oral gavage
Description: Mice were orally administered by gavage with sofalcone (SFC, once daily for 4 days), derivative 17, or aspirin (ASA) (single administration only). The mice are then treated with ferric chloride solution to induce carotid artery thrombosis, and an ultrasound imaging system was used to monitor the time required for the thrombus to block the carotid artery (occlusion time). Data are presented as mean±standard […] error of the mean (n≥6). Compared with the control group, *P<0.05, ***P<0.001. In this experiment, a ferric chloride-induced arterial injury was used to evaluate the antithrombotic effect of the to-be-tested compound. The to-be-tested compound was orally administered by gavage to BALB/c mice aged approximately 6-8 weeks. Then, the mice were anesthetized with isoflurane, the right carotid artery was exposed through surgery, and filter paper (2×4 mm^2) containing 8.5% ferric chloride was attached to the right carotid artery for 3 minutes. After removing the filter paper, remaining ferric chloride was wiped off with cotton balls soaked with physiological saline, and an ultrasonic imaging system (VEVO 2100 system, VisualSonics) equipped with a Doppler flow probe (MS400, 18-38 MHz) was used to monitor the blood flow of the right carotid artery. The occlusion time was determined when the blood flow completely stopped for at least 1 minute. If the occlusion time was longer than 30 minutes, it was considered the end point of the experiment.

[6] = system: human platelet suspension (platelet aggregation caused by TxA2 agonist U46619); assay: Platelet aggregation reaction test, U46619-induced; format: cell-based
Description: as §1, §2

[7] = system: normal hemostatic function (tail bleeding); assay: Mouse bleeding test (tail bleeding time); format: in vivo, BALB/c mice
Description: Mice were orally administered by gavage with sofalcone (SFC, once daily for 4 days), derivative 17, or aspirin (ASA) (single administration only). Then the mouse's tail was transected and the tail bleeding time was recorded. Data are presented as mean±standard error of the mean (n≥6). Compared with the control group, ***P<0.001. n.s.: No significant difference. In the present invention, the effect of the to-be-tested compound on normal hemostasis was evaluated by docking off the tail ends of the mice to cause bleeding. The to-be-tested compound was orally administered to BALB/c mice aged approximately 6-8 weeks by gavage. Then, the mice were anesthetized with isoflurane, and 2 mm of the distal end of their tails were excised. The tails of the mice were immersed in physiological saline at 37° C., and the bleeding time was observed. The determination of bleeding time was: the time required from the time the mouse tail was cut off until the bleeding completely stopped.

[8] = target: T2, human recombinant COX2 (Homo sapiens, UniProt P35354); assay: COX2 enzyme activity assay; format: biochemical
T2 construct: purchased Cayman Chemical Company
T2 sequence (P35354 18-604): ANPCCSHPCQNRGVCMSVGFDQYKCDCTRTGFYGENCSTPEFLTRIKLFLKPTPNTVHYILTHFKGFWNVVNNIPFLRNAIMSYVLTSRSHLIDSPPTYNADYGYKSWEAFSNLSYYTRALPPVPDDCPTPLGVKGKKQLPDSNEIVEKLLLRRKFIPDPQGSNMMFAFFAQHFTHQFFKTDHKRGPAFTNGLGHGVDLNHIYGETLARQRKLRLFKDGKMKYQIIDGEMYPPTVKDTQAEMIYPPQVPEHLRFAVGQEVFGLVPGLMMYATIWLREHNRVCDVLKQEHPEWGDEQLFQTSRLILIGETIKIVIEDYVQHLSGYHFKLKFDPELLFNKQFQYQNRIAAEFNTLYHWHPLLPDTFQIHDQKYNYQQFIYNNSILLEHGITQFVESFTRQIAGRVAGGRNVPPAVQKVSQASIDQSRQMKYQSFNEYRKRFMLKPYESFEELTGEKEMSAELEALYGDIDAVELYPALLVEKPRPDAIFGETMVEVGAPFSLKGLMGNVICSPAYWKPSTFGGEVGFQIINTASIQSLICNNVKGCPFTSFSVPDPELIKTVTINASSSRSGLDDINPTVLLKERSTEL
Description: as §5

[9] = target: T3, TxA2 receptor (Homo sapiens, UniProt P21731); assay: Competitive antagonism of U46619-induced platelet aggregation (U46619 concentration-response curves); format: cell-based; settings: for mode of action at TxA2 receptor: concluded from parallel right shift of U46619 curves; for U46619 concentration-platelet aggregation response curve / maximum level of platelet aggregation: U46619 0.1-10 μM
T3 construct: The blood samples were centrifuged to obtain platelets, and residual plasma was removed by washing to prepare platelet suspension; endogenous in cells; host or cells: washed human platelets from healthy donors
T3 sequence (P21731 1-343): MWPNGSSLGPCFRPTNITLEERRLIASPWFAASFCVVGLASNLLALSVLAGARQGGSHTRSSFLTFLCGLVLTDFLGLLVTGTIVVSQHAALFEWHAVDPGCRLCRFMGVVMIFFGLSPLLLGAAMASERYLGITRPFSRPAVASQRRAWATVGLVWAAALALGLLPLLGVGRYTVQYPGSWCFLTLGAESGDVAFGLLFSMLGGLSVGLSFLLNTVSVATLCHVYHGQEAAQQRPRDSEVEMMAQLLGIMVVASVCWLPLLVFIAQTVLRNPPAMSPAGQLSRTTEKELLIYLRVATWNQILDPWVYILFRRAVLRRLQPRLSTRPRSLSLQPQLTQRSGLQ
Description: After human platelet suspension was pretreated with dimethyl sulfoxide (DMSO) or sofalcone (SFC) (FIG. 5A), sofalcone derivative 3 (FIG. 5B), and sofalcone derivative 30 (FIG. 5C), different concentrations of U46619 (0.1-10 μM) were added to stimulate platelet aggregation reaction. Data are presented as mean±standard error of the mean (n=5).
as §1, §2
After pretreating human platelet suspensions with dimethylsulfoxide (DMSO), sofalcone (20 μM and 50 μM), and sofalcone derivatives 3 or 30 (0.2 μM and 0.5 μM, respectively), different concentrations of U46619 (0.1-10 μM) were added to stimulate platelet aggregation.

T1 sequence (P23219 24-599): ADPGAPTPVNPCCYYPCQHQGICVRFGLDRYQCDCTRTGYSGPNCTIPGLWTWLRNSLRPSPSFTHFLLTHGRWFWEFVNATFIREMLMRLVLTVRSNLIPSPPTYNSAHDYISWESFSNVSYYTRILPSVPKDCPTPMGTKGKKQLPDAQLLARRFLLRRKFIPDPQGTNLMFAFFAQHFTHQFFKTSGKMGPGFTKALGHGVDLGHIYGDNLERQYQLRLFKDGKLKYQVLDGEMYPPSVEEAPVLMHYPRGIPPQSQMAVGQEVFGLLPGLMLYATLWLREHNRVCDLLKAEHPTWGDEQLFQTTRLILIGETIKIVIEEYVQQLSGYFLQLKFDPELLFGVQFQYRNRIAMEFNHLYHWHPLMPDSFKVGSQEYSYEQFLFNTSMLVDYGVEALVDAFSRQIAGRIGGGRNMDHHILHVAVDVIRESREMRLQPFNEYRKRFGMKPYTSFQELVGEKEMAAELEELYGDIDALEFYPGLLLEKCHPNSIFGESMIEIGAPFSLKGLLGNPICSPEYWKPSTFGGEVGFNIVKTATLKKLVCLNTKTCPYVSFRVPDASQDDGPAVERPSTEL

Compound | IC50 [1] [µM] | formation of PGE2 induced by arachidonic acid [2] | formation of TxB2 induced by arachidonic acid [4] | carotid artery occlusion time ([5]; single dose 25 mg/kg) | IC50 [6] [µM] | mode of action at TxA2 receptor [9] | other results
CC(=O)Oc1ccccc1C(=O)O [Aspirin, reference compound] | 79 | inhibited | inhibited | prolonged | > 200 | – | inhibition at 200 µM ([3]; read-out: COX1 (Inhibition rate %)): 26%; tail bleeding time ([7]; mice, oral gavage, single dose 25 mg/kg): significantly prolonged
O=C(O)CCCOc1ccccc1C(=O)/C=C/c1ccc(F)cc1 [Compound 3] | 0.03 | inhibited | inhibited | – | 0.07 | competitively antagonize | COX2 (Inhibition rate %) ([8]; 10 μM): 26.7%; COX2 (Inhibition rate %) ([8]; 100 μM): 48.6%; COX1 (Inhibition rate %) ([3]; 1 μM): 19.1%; COX1 (Inhibition rate %) ([3]; 10 μM): 61.6%; COX1 (Inhibition rate %) ([3]; 100 μM): 89.8%; COX1 versus COX2 inhibitory effect ([3]; human recombinant COX1 and COX2, 1-100 μM): better inhibitory effect on COX1; U46619 concentration-platelet aggregation response curve ([9]; pretreatment 0.2 μM and 0.5 μM): shifted parallelly to the right; maximum level of platelet aggregation ([9]; pretreatment 0.2 μM and 0.5 μM): not significantly affected
CC(C)=CCOc1ccc(/C=C/C(=O)c2ccc(OCC=C(C)C)cc2OCCCC(=O)[O-])cc1.[K+] [Compound 17] | 0.32 | – | – | significantly prolonged | 0.04 | – | carotid artery occlusion time ([5]; single dose 10 mg/kg): significantly prolonged; tail bleeding time ([7]; mouse, in vivo, po, 10 mg/kg): did not affect; tail bleeding time ([7]; mouse, in vivo, po, 25 mg/kg): did not affect
CC(C)=CCOc1ccc(/C=C/C(=O)c2ccc(OCC=C(C)C)cc2OCC(=O)O)cc1 [SFC, sofalcone] | 49 | did not inhibit | did not inhibit | – | 16 | competitively antagonize | carotid artery occlusion time ([5]; 50 mg/kg per day for 4 days): significantly prolonged; U46619 concentration-platelet aggregation response curve ([9]; pretreatment 20 μM and 50 μM): shifted parallelly to the right; maximum level of platelet aggregation ([9]; pretreatment 20 μM and 50 μM): not significantly affected; tail bleeding time ([7]; mice, oral gavage, 50 mg/kg per day for 4 days): did not affect
